Experiment: isobaric coefficient of expansion
Conditions: calorimetric method

CCCCCCO [hexan-1-ol]
isobaric coefficient of expansion
Conditions | 5000 kPa | 10000 kPa | 15000 kPa | 20000 kPa | 25000 kPa | 30000 kPa | 35000 kPa | 40000 kPa | 45000 kPa | 50000 kPa
278.15 K | 0.000821 1/K | 0.0008 1/K | 0.000788 1/K | 0.000778 1/K | 0.00076 1/K | 0.000748 1/K | 0.000733 1/K | 0.000723 1/K | 0.000716 1/K | 0.000708 1/K
298.15 K | 0.00085 1/K | 0.000832 1/K | 0.000812 1/K | 0.000796 1/K | 0.00078 1/K | 0.000764 1/K | 0.000749 1/K | 0.000734 1/K | 0.000724 1/K | 0.000712 1/K
328.15 K | 0.000929 1/K | 0.0009 1/K | 0.000876 1/K | 0.000854 1/K | 0.000833 1/K | 0.000813 1/K | 0.000794 1/K | 0.000776 1/K | 0.000759 1/K | 0.000745 1/K
348.15 K | 0.000995 1/K | 0.00096 1/K | 0.000929 1/K | 0.000903 1/K | 0.000875 1/K | 0.000852 1/K | 0.000831 1/K | 0.000808 1/K | 0.000791 1/K | 0.000772 1/K
